Source: ChEMBL document CHEMBL1121775, “Synthesis and antimalarial effects of N2-aryl-N4-[(dialkylamino)alkyl]- and N4-aryl-N2-[(dialkylamino)alkyl]-2,4-quinazolinediamines” (J Med Chem, 1981)
Several values for one entry are separate records, joined by “and”; a condition that tells them apart may be missing. Equal entries are not always repeated.

What was measured:
Plasmodium berghei [1] = assay: Antimalarial effect against trophozoite-induced Plasmodium berghei in mice (Mus musculus) after 20 mg/kg subcutaneous dose; assay type: functional
Mus musculus [2] = assay: Number of mice cured at a dose of 640 mg/kg sc; assay type: functional; conditions: route subcutaneous
Plasmodium berghei [3] = assay: Antimalarial activity against trophozoite-induced Plasmodium berghei in mice (Mus musculus); assay type: functional
Plasmodium berghei [4] = assay: Antimalarial effect against trophozoite-induced Plasmodium berghei in mice (Mus musculus) at 640 mg/kg subcutaneous dose; assay type: functional
Plasmodium berghei [5] = assay: Antimalarial effect against trophozoite-induced Plasmodium berghei in mice (Mus musculus) at 160 mg/kg subcutaneous dose; assay type: functional
Plasmodium berghei [6] = assay: Antimalarial effect against trophozoite-induced Plasmodium berghei in mice (Mus musculus) at 320 mg/kg subcutaneous dose; assay type: functional
Plasmodium berghei [7] = assay: Antimalarial effect against trophozoite-induced Plasmodium berghei in mice (Mus musculus) after 40 mg/kg subcutaneous dose; assay type: functional
[8] = The ratio of SD90 of the quinine hydrochloride, to the SD90 of the test substance for the Dose of 11 mg/kg; assay type: functional
Plasmodium berghei [9] = assay: Antimalarial effect against trophozoite-induced Plasmodium berghei in mice (Mus musculus) at 80 mg/kg subcutaneous dose; assay type: functional
Mus musculus [10] = assay: Number of mice cured at a subcutaneous dose of 320 mg/kg.; assay type: functional
Mus musculus [11] = assay: Number of mice cured at a subcutaneous dose of 160 mg/kg.; assay type: functional
[12] = The ratio of SD90 of the quinine hydrochloride, to the SD90 of the test substance for the Dose of 6.3 mg/kg; assay type: functional
Mus musculus [13] = assay: Antimalarial effect against trophozoite-induced Plasmodium berghei in mice (Mus musculus) at dosage of 80 mg/kg after subcutaneous administration; assay type: functional
Mus musculus [14] = assay: Number of mice cured at a dose of 320 mg/kg sc; assay type: functional; conditions: route subcutaneous
Plasmodium berghei [15] = assay: Antimalarial activity against trophozoite-induced Plasmodium berghei in mice (Mus musculus) at 160 mg/kg subcutaneous dose; assay type: functional
Mus musculus [16] = assay: Number of mice cured at a subcutaneous dose of 640 mg/kg.; assay type: functional
Mus musculus [17] = assay: (§1) Number of mice cured at a dose of 80 mg/kg sc; assay type: functional; conditions: route subcutaneous
Mus musculus [18] = assay: Number of mice cured at a dose of 160 mg/kg sc; assay type: functional; conditions: route subcutaneous
[19] = The ratio of SD90 of the quinine hydrochloride, to the SD90 of the test substance for the Dose of 9 mg/kg; assay type: functional
[20] = The ratio of SD90 of the quinine hydrochloride, to the SD90 of the test substance for the Dose of 120 mg/kg; assay type: functional
[21] = The ratio of SD90 of the quinine hydrochloride, to the SD90 of the test substance for the Dose of >37 mg/kg; assay type: functional
Mus musculus [22] = assay: Number of toxic deaths at a dose of 640 mg/kg; assay type: toxicity, organism-based; design: dose 640 mg/kg; conditions: in vivo
[23] = The ratio of SD90 of the quinine hydrochloride, to the SD90 of the test substance for the Dose of 17.5 mg/kg; assay type: functional
Mus musculus [24] = assay: Antimalarial effect against trophozoite induced Plasmodium berghei in mice (Mus musculus) at dosage of 40 mg/kg after subcutaneous administration; assay type: functional
[25] = The ratio of SD90 of the quinine htdrocloride, to the SD90 of the test substance for the Dose of 8.5 mg/kg; assay type: functional
[26] = (§2) Number of mice cured at a dose of 40 mg/kg sc; assay type: functional; conditions: route subcutaneous
Mus musculus [27] = assay: as §2; assay type: functional; conditions: route subcutaneous
Mus musculus [28] = assay: Antimalarial effect against trophozoite-induced Plasmodium berghei in mice (Mus musculus) at dosage of 160 mg/kg after subcutaneous administration;; assay type: functional
[29] = as §1; assay type: functional; conditions: route subcutaneous
[30] = The ratio of SD90 of the quinine hydrochloride, to the SD90 of the test substance for the Dose of 7.8 mg/kg; assay type: functional
Mus musculus [31] = assay: Antimalarial effect against trophozoite-induced Plasmodium berghei in mice (Mus musculus) at dosage of 80 mg/kg after subcutaneous administration; No. of mice (Mus musculus) surviving after 60 days 4; assay type: functional
Mus musculus [32] = assay: Antimalarial effect against trophozoite-induced Plasmodium berghei in mice (Mus musculus) at dosage of 160 mg/kg after subcutaneous administration; No. of mice (Mus musculus) surviving after 60 days 4; assay type: functional
Mus musculus [33] = assay: Number of mice cured at a dose 320 mg/kg sc; assay type: functional; conditions: route subcutaneous
Mus musculus [34] = assay: Antimalarial effect against trophozoite induced Plasmodium berghei in mice (Mus musculus) at dosage of 640 mg/kg after subcutaneous administration; No. of mice (Mus musculus) surviving after 60 days 3; assay type: functional
[35] = The ratio of SD90 of the quinine hydrochloride, to the SD90 of the test substance for the Dose of 10.5 mg/kg; assay type: functional

SMILES	MST (Plasmodium berghei [1]) [days]	No. of survivals (Mus musculus [2])	SD90 (Plasmodium berghei [3]) [mg/kg/day]	MST (Plasmodium berghei [5]; 160 mg/kg)	MST (Plasmodium berghei [6]) [days]	MST (Plasmodium berghei [7]; 40 mg/kg)	MST (Plasmodium berghei [9]) [days]	MST (Plasmodium berghei [7]) [days]	MST (Plasmodium berghei [1]; 20 mg/kg)	MST (Plasmodium berghei [15]; 160 mg/kg)	No. of cured (Mus musculus [16])	No. of cured (Mus musculus [18])	No. of cured (Mus musculus [14])	also measured
OC1CCCN(CCCNc2nc(Nc3ccc(Cl)cc3)nc3ccccc23)C1 (configuration not stated)	0.2	2	11	10.4 days and 11.3 days	17.5	2.2 days and 2.5 days	4.6							MST (Plasmodium berghei [4]; 640 mg/kg): 26.1 days and 23.9 days; Ratio [8]: 6.8; No. of survivals (Mus musculus [10]): 2
Clc1ccc(Nc2nc(NCCCN3CCCC3)c3ccccc3n2)cc1Cl		5	12					5.2						No. of survivals (Mus musculus [11]): 4; Ratio [12]: 12
CCN(CC)C1CCC(Nc2nc(Nc3cc(Cl)cc(Cl)c3)nc3ccccc23)CC1 (stereo in doubt; 34)			9			7.7 days and 7.5 days			2.3 days	26.9 days and 23.4 days	5	2		MST (Mus musculus [13]; 80 mg/kg): 13.4 days; No. of cured (Mus musculus [14]; 320 mg/kg): 5 and 3; No. of cured (Mus musculus [17]): 1; Ratio [19]: 8.3
CCN(CC)CCNc1nc(Nc2cc(Cl)cc(Cl)c2)nc2ccccc12	0.2		120	8.2 days and 9 days	12.2		3.2							No. of survivals (Mus musculus [2]; 640 mg/kg): 2 and 3; MST (Plasmodium berghei [4]; 640 mg/kg): 22.1 days and 20.8 days; Ratio [20]: 0.6
c1ccc2c(NCCCN3CCCC3)nc(Nc3ccncc3)nc2c1			>37					0.3						MST (Plasmodium berghei [15]): 0.9 days; Ratio [21]: <2; No. of toxic deaths (Mus musculus [22]): 5 and 2
CCN(CC)C1CCCC(Nc2nc(Nc3ccc(Cl)c(Cl)c3)nc3ccccc23)C1 (configuration not stated)	1		17.5			5 days and 4.8 days	8			22.8 days and 23.1 days	5	2	5	Ratio [23]: 4.2
CCN(CC)C1CCC(Nc2nc(Nc3cc(Cl)cc(Cl)c3)nc3ccccc23)CC1 (stereo in doubt; 35)		5	8.5						5.5 days	24.9 days				MST (Mus musculus [13]; 80 mg/kg): 21.9 days; No. of survivals (Mus musculus [11]; 160 mg/kg): 4 and 3; MST (Mus musculus [24]): 9.6 days and 8.9 days; Ratio [25]: 8.8; No. of survivals (Mus musculus [14]): 5; No. of survivals [26]: 2; No. of survivals (Mus musculus [27]): 2; MST (Mus musculus [28]): 23.9 days; No. of survivals [29]: 4
CN(C)C1CCC(Nc2nc(Nc3ccc(Cl)c(Cl)c3)nc3ccccc23)CC1 (stereo in doubt; 22)			7.8			4.5 days and 4.1 days			0.3 days	22.9 days		4	4	MST (Mus musculus [13]): 11.4 days; MST (Plasmodium berghei [5]): 25.9 days; No. of cured (Mus musculus [17]): 3; MST (Plasmodium berghei [6]; 320 mg/kg): 25.9 days; Ratio [30]: 9.6
CN(C)C1CCC(Nc2nc(Nc3cc(Cl)cc(Cl)c3)nc3ccccc23)CC1 (stereo in doubt; 26)		5							3.6 days and 1.7 days	19.1 days and 24.9 days				No. of survivals (Mus musculus [11]; 160 mg/kg): 2 and 4; MST (Mus musculus [31]): 23.9 days; MST (Plasmodium berghei [6]; 320 mg/kg): 27.8 days; MST (Plasmodium berghei [9]; 80 mg/kg): 11.6 days and 9 days; No. of survivals (Mus musculus [10]): 5; MST (Mus musculus [32]): 27.9 days; No. of survivals (Mus musculus [33]): 4
CN1CCCC1CCNc1nc(Nc2ccc(Cl)c(Cl)c2)nc2ccccc12 (configuration not stated)			10.5	13.2 days and 13.9 days	20.8		8	4	3 days and 3.9 days		4		2	MST (Plasmodium berghei [4]): 29.8 days; MST (Mus musculus [34]): 28.9 days; Ratio [35]: 7.1
